Experimental data reported in publication PMC11407758, “Integrated stress response (ISR) activation and apoptosis through HRI kinase by PG3 and other p53 pathway-restoring cancer therapeutics” (Oncotarget, 2024).
Read-outs that look alike come from different tables or passages of the source.

Legend:
[1] = system: GCN2, PKR, eIF2α, ATF4, CHOP in HT29 cells; experiment: Western blot, ISR kinases / eIF2α / ATF4 / CHOP; assay type: cell-based, human
Procedure: Figure 7 PG3 induces upregulation of ATF4 through ISR via HRI. (A) HT29 cells were treated with PG3, GSK2606414, TG and ONC201 respectively, or co-treatment with PG3/GSK2606414, PG3/TG, and PG3/ONC201 for 15 h. (B) MEF, MEF^PERK−/− and MEF^GCN2−/− cells were treated with PG3 and ONC201 for 16 hours. (C) HT29 cells were transfected with siControl, siPKR, siHRI and siPKR/siHRI for 24 hours and then treated with PG3 for 16 hours. (D) HCT116 p53^−/− cells were transfected with siControl and siHRI for 24 hours and then treated with PG3 for 16 hours. (E) HCT116 p53^−/− cells were treated with PG3 and ONC201 for indicated times. (F) PANC1-sgCtrl, -sgHRI and -sgPKR cell lines were treated with PG3 and imipridones (ONC201, ONC206 and ONC212) for 16 hours. Western blot was performed using indicated antibodies. (G) Proposed model of PG3-induced cell apoptosis through HRI/ATF4/PUMA axis. Abbreviation: L.E.: Long exposure.
(§1) After treatment, protein lysates were collected for Western blot analysis. A total of 15 μg of protein was used for SDS-PAGE. After primary and secondary antibody incubations, the signal was detected by a chemiluminescence detection kit, imaged by Syngene (Imgen Technologies). Antibodies for NAG-1 (GDF15) and P53 were from Santa Cruz Biotechnology; for caspase 8, cleaved caspase 8, caspase 9, caspase 3, cleavage PARP, eIF2α, p-eIF2α (Ser51), CHOP, ATF4, DR5, and PUMA were from Cell Signaling Technology. Noxa and p21 were from Calbiochem. Ran was from BD Biosciences.
(§2) Supplementary Figure 2: ROS and NO are not responsible for PG3-induced HRI activation. (A, B) cells were pre-treated
(§3) with ZnPP, L-NMMA, SA and NAC for 2 hours respectively, and then ONC201 or PG3 was added to the medium for 24 hour treatment.
(§4) Western blot was performed using indicated antibodies.
(§5) (1 picture or pasted object on this page, not shown here)

ALAS1, UROD = experiment: Western blot, heme biosynthesis enzymes; assay type: cell-based, human
Procedure: Figure 8 Inhibition of heme biosynthesis leads to upregulation of ATF4. (A) HT29 cells were treated with SA and ONC201 for 20 hours. Western blotting was performed using the indicated antibodies. (B) HT29 cells were transfected with siCtrl, siHRI, siClpX, siALAS1, siClpX/siALAS1 and siClpX/siALAS1/siHRI for 48 hours. (C) HT29 cells were transfected with siCtrl, siLonP1, siClpP for 24 or 48 hours respectively, and then treated with ONC201 for 24 hours. (D) Proposed model of ONC201-induced cell apoptosis through ClpP/ALAS1/HRI/ATF4 axis. (E, F) Silencing of ClpP in HCT116 p53^−/− and MDA-MB-468 cells and then treated with PG3, PG3-Oc and ONC201. Western blot was performed using indicated antibodies.
as §1, §2, §3, §4, §5

[2] = system: HCT116 (wild-type), SW480 (R273H, P309S), and DLD1 (S241F); experiment: Cell viability assay in colorectal cancer cell lines (Figure 1E); assay type: cell-based, human; conditions: 72 h
Procedure: Figure 1 PG3 inhibits cell proliferation and growth in a p53-indepent manner. (A–E) Cell viability assay, dose response curves and IC50 value measurements in a panel of cancer cell lines and normal cells. Cells were treated with different concentrations of PG3, PG3-Oc (Oc), obatoclax (Ob), prodigiosin (P) or DMSO for 72 h. Luciferase activity was imaged by the IVIS Imaging System after treatment. Cell viability data were normalized to those of DMSO treatment control in each cell line and data analyses were performed using PRISM4 software. IC50 data are expressed as the mean ±SD (normal; n = 3).
Cells were seeded in 96-well plates (6 × 10^3 cells/well). Cells were treated with different concentrations of compounds or dimethyl sulfoxide (DMSO) as a control for 72 hours. The cell viability was assessed by CellTiterGlo bioluminescent cell viability assay (Promega), following the manufacturer’s protocol. Bioluminescence imaging was measured using the IVIS imager. The percentage of cell viability (mean ± SEM) at each dose was calculated against the respective DMSO control. The IC50 values were determined from the sigmoidal dose-response curves using GraphPad Prism.

HRI = system: HRI; parameters: method as in PMID 22827572; conditions: cited from earlier work

With `Cc1ccccc1CN1C(=O)C2=C(CCN(Cc3ccccc3)C2)N2CCN=C12` [ONC201] the “phosphorylation of GCN2 and PKR” value [1] was “does not increase phosphorylation”, the ALAS1 protein level (ALAS1, UROD) was “potent downregulation and inhibition of ALAS1” and the UROD protein levels (ALAS1, UROD) was “do not have any effects”.
For `CC(=O)CC(=O)CCC(=O)O` [SA, Succinylacetone], the “eIF2α phosphorylation, ATF4 and CHOP” value ([1]; HT29, 20 hours, comparable to ONC201) was “eIF2α phosphorylation and upregulation of ATF4 and CHOP” and the ALAS1 protein level (ALAS1, UROD; HT29, 20 hours) was “upregulation of ALAS1”.
With `COC1=CC(c2cc3ccccc3[nH]2)=N/C1=C\c1[nH]c(C)cc1C` [Obatoclax] the “potency compared among PG3-Oc, prodigiosin and Obatoclax” value [2] was “same potency”.
With `Cn1cc(-c2ccc3c(c2)CCN3C(=O)Cc2cccc(C(F)(F)F)c2)c2c(N)ncnc21` [GSK2606414, 7-methyl-5-(1-{[3-(trifluoromethyl)phenyl]acetyl}-2,3-dihydro-1H-indol-5-yl)-7H-pyrrolo[2,3-d]pyrimidin-4-amine] the “effect on ONC201-induced upregulation of ATF4 and CHOP” value ([1]; HT29, co-treatment with ONC201) was “significantly attenuates”, the “effect on PG3-induced eIF2α phosphorylation, ATF4 and CHOP upregulation” value ([1]; HT29, co-treatment with PG3, 15 h) was “does not block” and the “effect on TG-induced upregulation of ATF4 and CHOP” value ([1]; HT29, co-treatment with thapsigargin) was “abolishes”. The IC50 (HRI) was 420 nM.
